Laboratory results taken from patent US20220401385A1, “Combination Therapy Based on PD-1 Signaling Inhibitors” (Kyoto University, priority 2019, published 2022).

Columns and labels:
CD44 low CD8+ T cells = assay: Cell proliferation by 3H uptake in vitro, CD44 low cells; format: cell-based, mice; details: SPD 0.2 μM, 24 hours
Method: (§1) FIG. 4 CD8^+ T cells were isolated from the spleen of mice without tumor inoculation, and further isolated into CD44^+ (CD44 high) and CD44^− (CD44 low) cell populations. a) CD44 low cells were simulated with CD3/CD28 antibody beads and SPD (0.2 μM). After 30 minutes, 1 hour, 2 hours and 72 hours, OCR was measured with a Seahorse analyzer. b) At the same time, total ATP production and glycolytic pathway-derived or mitochondrial activity-derived ATP production were calculated at 30-minute, 1-hour and 2-hour. c) CD44 low cells (2×10^5 cells) were stimulated with CD3/CD28 antibody beads and SPD (0.2 μM). After 24 hours, cell proliferation was examined by means of 3H uptake. d) Spare respiratory capacity (SRC) was calculated from the OCR measurement after 72 hours in a), and results with and without SPD were compared. e) CD44 low cells were stimulated with CD3/CD28 antibody beads and SPD (0.2 μM). After 24 hours, frequencies between apoptotic and viable cells were calculated by PI and Annexin staining. f-j) CD44 high cells were analyzed under the same conditions and by the same methods as described in a-e) above. As regards statistical analysis, t-test was used for comparison of two groups, and ANOVA was used for comparison of three or more groups. * p<0.05, ** p<0.01, *** p<0.001, **** p<0.0001.

CD44 high CD8+ T cells [1] = assay: Cell proliferation by 3H uptake in vitro, CD44 high cells; format: cell-based, mice; details: SPD 0.2 μM, 24 hours
Method: as §1

CD44 high CD8+ T cells [2] = assay: Mitochondria-related proteomics in vitro, CD44 high cells; format: cell-based, mice; details: late phase, 44 hours after SPD stimulation
Method: FIG. 6 CD8^+ T cells were isolated from the spleen of mice without tumor inoculation, and further isolated into CD44^+ (CD44 high) and CD44^− (CD44 low) cell populations. CD44 low cells and CD44 high cells were simulated with CD3/CD28 antibody beads and SPD (0.2 μM). After 1 hour and 44 hours, cells were collected and proteomics analyses regarding mitochondria-related proteins were conducted. A heat map showing the categories of respective signaling pathways, associated protein names and comparison of their expression levels is given.
T cells were prepared by two methods. For in vivo analysis, 13 days after tumor inoculation and 3 days after the start of therapy, draining lymph nodes from 5 mice were pooled, followed by isolation of CD8^+ T cells. From the isolated CD8^+ T cells, three samples each consisting of 1×10^6 cells were prepared and used for analysis. For in vitro experiments, 2×10^5 CD8^+ T cells stimulated with 0.2 μM spermidine for 1 hour were used. For mass spectrometry analysis, a Tandem Mass Tag (TMT) system or a Data Independent Acquisition (DIA) system was used. In the analysis of in vivo CD8^+ T cells (FIG. 3), those proteins which increased by 1.5-fold or more or decreased by 0.6-fold or less were extracted.

CD8+ T cells = assay: Tumor-infiltrating CD8+ T cells in aged MC38 mice; format: in vivo; details: 56-week old mice; combination with SPD; 13 days after tumor inoculation
Method: FIG. 7 MC38 cells (5×10^5) were intradermally inoculated into 56-week old mice, which were treated along with the treatment schedule described in FIG. 1. PD-L1 antibody (2 mg/kg) and SPD (2 mg/kg) were used. a) Tumor growth curve and survival curve are shown. b) The frequency of CD8^+ T cells among lymphocytes infiltrating into tumor (in CD45^+ gate) and the absolute number of CD8^+ T cells per mg tumor 13 days after tumor inoculation are shown. c) CD8^+ T cells were isolated from spleen cells on the same schedule as b) and cultured for 20 hours under the stimulation with CD3/CD28. Cell proliferation was examined by means of ^3H uptake. d) CD8^+ T cells were isolated from draining lymph nodes on the same schedule as b) and glycolytic pathway-derived or mitochondrial metabolism-derived ATP production was calculated by Seahorse. e) Spare respiratory capacity (SRC) was also calculated in the experiment (d).
It is known from mouse model experiments that the effect of PD-1 inhibitory antibody therapy decreases in aged mice due to their decreased immunity. […] CD8^+ T cells were isolated from draining lymph nodes 13 days after tumor inoculation and glycolytic pathway-derived or mitochondrial metabolism-derived ATP production was calculated by Seahorse. Spare respiratory capacity (SRC) was also calculated. […]

T cells = assay: Function of oxidative phosphorylation in T cells (OCR, Seahorse); format: cell-based
Method: The function of oxidative phosphorylation in T cells may be measured as described below. Briefly, the oxygen consumption rate (OCR) of T cells is measured with an extracellular flux analyzer (Seahorse). Baseline OCR and the OCR for the case where carbonyl cyanide-4 (trifluoromethoxy) phenylhydrazone (FCCP), or a reagent that is activated to the maximum extent upon addition of a mitochondrial function terminating agent (oligomycin, Antimycine A/Rotenone: A/R), is added are compared and calculated (Divakaruni A S, Paradyse A, Ferrick D A, Murphy A N, Jastroch M. 2014. Analysis and Interpretation of Microplate-Based Oxygen Consumption and pH data. In Methods in Enzymology, Volume 547, Chapter 16, 309-354).
If, in the above-described measurement method, baseline OCR is increased, spare respiratory capacity (SRC) is increased, or mitochondrial ATP production rate (mitoATP) is increased, it may well be concluded that the function of oxidative phosphorylation in T cells has increased.

For NCCCCNCCCN [SPD, spermidine], the cell proliferation (CD44 low CD8+ T cells) was “increased”, the cell proliferation (CD44 high CD8+ T cells [1]) was “not found to increase” and the “expression levels of mitochondrial proteins and proteins of mitochondria-related metabolism” value (CD44 high CD8+ T cells [2]) was “high”. The “number of CD8+ T cells in lymphocytes infiltrating into tumor” value (CD8+ T cells) was “increase” and the “function of oxidative phosphorylation in T cells” value (T cells) was “increased”.
